# Laboratory results taken from ChEMBL document CHEMBL1147144, “Novel styrylpyridines as probes for SPECT imaging of amyloid plaques” (J Med Chem, 2007).
# How the values were obtained:
# [1] = target: Amyloid-beta precursor protein (Homo sapiens, UniProt P05067); experiment: Displacement of […] from Abeta peptide plaques in Alzheimer's disease patient brain
# Muscle tissue [2] = experiment: Biodistribution in ICR mouse muscle at 5 to 10 uCi, iv after 2 mins; format: ADME, organism-based; details: in vivo
# Blood [3] = experiment: Biodistribution in ICR mouse blood at 5 to 10 uCi, iv after 1 hr; format: ADME, organism-based; details: in vivo
# Brain [4] = experiment: Ratio of drug distribution in brain after 2 mins to 30 mins in ICR mouse at 5 to 10 uCi, iv; format: ADME, organism-based; details: in vivo
# Muscle tissue [5] = experiment: Biodistribution in ICR mouse muscle at 5 to 10 uCi, iv after 1 hr; format: ADME, organism-based; details: in vivo
# Heart [6] = experiment: Biodistribution in ICR mouse heart at 5 to 10 uCi, iv after 2 hrs; format: ADME, organism-based; details: in vivo
# Heart [7] = experiment: Biodistribution in ICR mouse heart at 5 to 10 uCi, iv after 30 mins; format: ADME, organism-based; details: in vivo, 0.5 h
# Thyroid gland [8] = experiment: Biodistribution in ICR mouse thyroid at 5 to 10 uCi, iv after 2 mins; format: ADME, organism-based; details: in vivo
# Liver [9] = experiment: Biodistribution in ICR mouse liver at 5 to 10 uCi, iv after 1 hr; format: ADME, organism-based; details: in vivo
# Zone of skin [10] = experiment: Biodistribution in ICR mouse skin at 5 to 10 uCi, iv after 2 mins; format: ADME, organism-based; details: in vivo
# Spleen [11] = experiment: Biodistribution in ICR mouse spleen at 5 to 10 uCi, iv after 1 hr; format: ADME, organism-based; details: in vivo
# Heart [12] = experiment: Biodistribution in ICR mouse heart at 5 to 10 uCi, iv after 2 mins; format: ADME, organism-based; details: in vivo
# Thyroid gland [13] = experiment: Biodistribution in ICR mouse thyroid at 5 to 10 uCi, iv after 30 mins; format: ADME, organism-based; details: in vivo, 0.5 h
# Brain [14] = experiment: Biodistribution in ICR mouse brain at 5 to 10 uCi, iv after 30 mins; format: ADME, organism-based; details: in vivo, 0.5 h
# Brain [15] = experiment: Biodistribution in ICR mouse brain at 5 to 10 uCi, iv after 1 hr; format: ADME, organism-based; details: in vivo
# Liver [16] = experiment: Biodistribution in ICR mouse liver at 5 to 10 uCi, iv after 2 hrs; format: ADME, organism-based; details: in vivo
# Spleen [17] = experiment: Biodistribution in ICR mouse spleen at 5 to 10 uCi, iv after 2 mins; format: ADME, organism-based; details: in vivo
# Heart [18] = experiment: Biodistribution in ICR mouse heart at 5 to 10 uCi, iv after 1 hr; format: ADME, organism-based; details: in vivo
# Blood [19] = experiment: Biodistribution in ICR mouse blood at 5 to 10 uCi, iv after 2 mins; format: ADME, organism-based; details: in vivo
# Kidney [20] = experiment: Biodistribution in ICR mouse kidney at 5 to 10 uCi, iv after 1 hr; format: ADME, organism-based; details: in vivo
# Muscle tissue [21] = experiment: Biodistribution in ICR mouse muscle at 5 to 10 uCi, iv after 30 mins; format: ADME, organism-based; details: in vivo, 0.5 h
# Blood [22] = experiment: Biodistribution in ICR mouse blood at 5 to 10 uCi, iv after 2 hrs; format: ADME, organism-based; details: in vivo
# Kidney [23] = experiment: Biodistribution in ICR mouse kidney at 5 to 10 uCi, iv after 2 hrs; format: ADME, organism-based; details: in vivo
# Muscle tissue [24] = experiment: Biodistribution in ICR mouse muscle at 5 to 10 uCi, iv after 2 hrs; format: ADME, organism-based; details: in vivo
# Thyroid gland [25] = experiment: Biodistribution in ICR mouse thyroid at 5 to 10 uCi, iv after 2 hrs; format: ADME, organism-based; details: in vivo
# Lung [26] = experiment: Biodistribution in ICR mouse lung at 5 to 10 uCi, iv after 30 mins; format: ADME, organism-based; details: in vivo, 0.5 h
# Kidney [27] = experiment: Biodistribution in ICR mouse kidney at 5 to 10 uCi, iv after 2 mins; format: ADME, organism-based; details: in vivo
# Zone of skin [28] = experiment: Biodistribution in ICR mouse skin at 5 to 10 uCi, iv after 30 mins; format: ADME, organism-based; details: in vivo, 0.5 h
# Zone of skin [29] = experiment: Biodistribution in ICR mouse skin at 5 to 10 uCi, iv after 2 hrs; format: ADME, organism-based; details: in vivo
# Blood [30] = experiment: Biodistribution in ICR mouse blood at 5 to 10 uCi, iv after 30 mins; format: ADME, organism-based; details: in vivo, 0.5 h
# [31] = Partition coefficient, log P at pH 7.4; format: physicochemical; details: octanol/water
# Brain [32] = experiment: Biodistribution in ICR mouse brain at 5 to 10 uCi, iv after 2 hrs; format: ADME, organism-based; details: in vivo
# Lung [33] = experiment: Biodistribution in ICR mouse lung at 5 to 10 uCi, iv after 2 mins; format: ADME, organism-based; details: in vivo
# Lung [34] = experiment: Biodistribution in ICR mouse lung at 5 to 10 uCi, iv after 1 hr; format: ADME, organism-based; details: in vivo
# Liver [35] = experiment: Biodistribution in ICR mouse liver at 5 to 10 uCi, iv after 30 mins; format: ADME, organism-based; details: in vivo, 0.5 h
# Lung [36] = experiment: Biodistribution in ICR mouse lung at 5 to 10 uCi, iv after 2 hrs; format: ADME, organism-based; details: in vivo
# Brain [37] = experiment: Biodistribution in ICR mouse brain at 5 to 10 uCi, iv after 2 mins; format: ADME, organism-based; details: in vivo
# Spleen [38] = experiment: Biodistribution in ICR mouse spleen at 5 to 10 uCi, iv after 30 mins; format: ADME, organism-based; details: in vivo, 0.5 h
# Zone of skin [39] = experiment: Biodistribution in ICR mouse skin at 5 to 10 uCi, iv after 1 hr; format: ADME, organism-based; details: in vivo
# Thyroid gland [40] = experiment: Biodistribution in ICR mouse thyroid at 5 to 10 uCi, iv after 1 hr; format: ADME, organism-based; details: in vivo
# Liver [41] = experiment: Biodistribution in ICR mouse liver at 5 to 10 uCi, iv after 2 mins; format: ADME, organism-based; details: in vivo
# Spleen [42] = experiment: Biodistribution in ICR mouse spleen at 5 to 10 uCi, iv after 2 hrs; format: ADME, organism-based; details: in vivo
# Kidney [43] = experiment: Biodistribution in ICR mouse kidney at 5 to 10 uCi, iv after 30 mins; format: ADME, organism-based; details: in vivo, 0.5 h
# Chain of Amyloid-beta precursor protein (P05067 whole entry): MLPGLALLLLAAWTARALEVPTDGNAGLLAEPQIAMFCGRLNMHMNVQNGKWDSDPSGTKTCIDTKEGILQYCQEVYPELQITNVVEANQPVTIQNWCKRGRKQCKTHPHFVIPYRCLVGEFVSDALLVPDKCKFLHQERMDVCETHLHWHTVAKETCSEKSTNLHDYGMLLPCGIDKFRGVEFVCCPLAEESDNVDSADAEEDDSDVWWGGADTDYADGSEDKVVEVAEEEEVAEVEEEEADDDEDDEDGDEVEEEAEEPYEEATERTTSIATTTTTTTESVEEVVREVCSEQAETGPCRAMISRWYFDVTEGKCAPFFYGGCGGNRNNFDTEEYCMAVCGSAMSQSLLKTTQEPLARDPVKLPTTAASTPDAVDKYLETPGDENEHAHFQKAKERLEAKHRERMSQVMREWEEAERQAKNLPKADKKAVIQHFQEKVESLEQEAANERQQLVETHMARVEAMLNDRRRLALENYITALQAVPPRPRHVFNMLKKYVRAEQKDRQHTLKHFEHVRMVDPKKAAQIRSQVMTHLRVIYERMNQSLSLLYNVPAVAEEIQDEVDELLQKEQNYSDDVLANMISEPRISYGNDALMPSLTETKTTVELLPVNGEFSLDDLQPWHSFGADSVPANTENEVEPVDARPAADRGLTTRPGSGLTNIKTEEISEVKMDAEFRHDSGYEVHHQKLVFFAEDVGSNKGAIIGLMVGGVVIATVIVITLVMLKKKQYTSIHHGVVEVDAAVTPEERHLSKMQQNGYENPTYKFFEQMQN
smiles,measurement,setting,value
Oc1ccc(/C=C/c2cnc(OCCOCCOCCF)c(Br)c2)cc1,Ki,[1],14.2 nM
CN(C)c1ccc(/C=C/c2cnc(OCCO)c(I)c2)cc1,Ki,[1],7.5 nM
Oc1ccc(/C=C/c2cnc(OCCOCCOCCF)c(I)c2)cc1,Ki,[1],21 nM
CN(C)c1ccc(/C=C/c2cnc(OCCOCCOCCF)c(I)c2)cc1,Ki,[1],7.5 nM
CNc1ccc(/C=C/c2cnc(OCCO)c([125I])c2)cc1,Drug uptake,Muscle tissue [2],1.15 % ID/g
same,Drug uptake,Blood [3],1.81 % ID/g
same,Ratio,Brain [4],9.13
same,Drug uptake,Muscle tissue [5],0.42 % ID/g
same,Drug uptake,Heart [6],0.76 % ID/g
same,Drug uptake,Heart [7],1.5 % ID/g
same,Drug uptake,Thyroid gland [8],6.31 % ID/g
same,Drug uptake,Liver [9],5.62 % ID/g
same,Drug uptake,Zone of skin [10],0.95 % ID/g
same,Drug uptake,Spleen [11],0.87 % ID/g
same,Drug uptake,Heart [12],7.16 % ID/g
same,Drug uptake,Thyroid gland [13],17.2 % ID/g
same,Drug uptake,Brain [14],0.88 % ID/g
same,Drug uptake,Brain [15],0.26 % ID/g
same,Drug uptake,Liver [16],3.41 % ID/g
same,Drug uptake,Spleen [17],4.08 % ID/g
same,Drug uptake,Heart [18],0.88 % ID/g
same,Drug uptake,Blood [19],4.14 % ID/g
same,Drug uptake,Kidney [20],2.16 % ID/g
same,Drug uptake,Muscle tissue [21],0.91 % ID/g
same,Drug uptake,Blood [22],1.96 % ID/g
same,Drug uptake,Kidney [23],1.53 % ID/g
same,Drug uptake,Muscle tissue [24],0.38 % ID/g
same,Drug uptake,Thyroid gland [25],99.9 % ID/g
same,Drug uptake,Lung [26],2.67 % ID/g
same,Drug uptake,Kidney [27],11.5 % ID/g
same,Drug uptake,Zone of skin [28],1.86 % ID/g
same,Drug uptake,Zone of skin [29],1.43 % ID/g
same,Drug uptake,Blood [30],3.08 % ID/g
same,logD,[31],2.2
same,Drug uptake,Brain [32],0.15 % ID/g
same,Drug uptake,Lung [33],7.43 % ID/g
same,Drug uptake,Lung [34],1.76 % ID/g
same,Drug uptake,Liver [35],12.6 % ID/g
same,Drug uptake,Lung [36],1.58 % ID/g
same,Drug uptake,Brain [37],8.04 % ID/g
same,Drug uptake,Spleen [38],1.34 % ID/g
same,Drug uptake,Zone of skin [39],1.29 % ID/g
same,Drug uptake,Thyroid gland [40],36.7 % ID/g
same,Drug uptake,Liver [41],20.8 % ID/g
same,Drug uptake,Spleen [42],1.08 % ID/g
same,Drug uptake,Kidney [43],3.73 % ID/g
OCCOc1ncc(C=Cc2ccc(O)cc2)cc1Br,Ki,[1],6.8 nM
CNc1ccc(/C=C/c2cnc(OCCO)c(Br)c2)cc1,Ki,[1],5 nM
CN(C)c1ccc(/C=C/c2cnc(OCCOCCOCCF)c(Br)c2)cc1,Ki,[1],6.8 nM
